Values of other authors as cited in patent publication US11789016B2, “Methods, systems and kits for in-pen assays” (Berkeley Lights, Inc., priority 2017, dated 2023).
Like-named read-outs stand apart in the source and are kept apart here. One block for each substance: values may come before it.

Target: IgG
Conditions: for Kd: read-out: Affinity for IgG

Substance: CPD 1: Protein A-AF594, Pierce Recombinant Protein A (ThermoFisher Cat. # 77674)
Affinity for IgG (order of magnitude in words): nanomolar

Substance: DCAWHLGELVWCT [CPD 4, Asp Cys Ala Trp His Leu Gly Glu Leu Val Trp Cys Thr]
Kd (Fc): 100 nM

Kd (Fc of hIgG): 75 nM
Substance: 5′-rGp-rGp-rAp-rGp-rGp-fUp-rGp-fCp-fUp-fCp-fCp-rGp-rAp-rAp-rAp-rGp-rGp-rAp-rAp-fCp-fUp-fCp-fCp-3′ [CPD 5]
